The text below walks through data of BindingDB's records for doi:10.1016/s0960-894x(99)00670-8 (Institute, 2000).

A short description of this experiment: Binding affinity was determined against Opioid receptor delta 1 obtained from guinea pig brain membranes using [3H]naltrindole as radioligand.

Turning to `C[C@H]1C2Cc3ccc(N)cc3[C@@]1(C)CCN2CC1CC1` [3-Cyclopropylmethyl-6,11-dimethyl-1,2,3,4,5,6-hexahydro-2,6-methano-benzo[d]azocin-8-ylamine], the inhibition constant Ki (commonly the dissociation constant of the complex between target and ligand, obtained from inhibition or displacement) was found to be 12 nM.
